The assay has as its target GABAA receptor. Put plainly: Steroid inhibition of [35S]-TBPS binding. To be noted: rat brain cortical membranes, 3 nM [35S]-TBPS, in the presence of 5 mM GABA. The procedure: Steroid Inhibition of TBPS Binding
Briefly, cortices are rapidly removed following decapitation of carbon dioxide-anesthetized Sprague-Dawley rats ([…]). The cortices are homogenized in 10 volumes of ice-cold 0.32 M sucrose using a glass/teflon homogenizer and centrifuged at 1500×g for 10 min at 4° C. The resultant supernatants are centrifuged at 10,000×g for 20 min at 4° C. to obtain the P2 pellets. The P2 pellets are resuspended in 200 mM NaCl/50 mM Na—K phosphate pH 7.4 buffer and centrifuged at 10,000×g for 10 min at 4° C. This washing procedure is repeated twice and the pellets are resuspended in 10 volumes of buffer. Aliquots ([…]) of the membrane suspensions are incubated with 3 nM [^35S]-TBPS and […] aliquots of test drug dissolved in dimethyl sulfoxide (DMSO) (final 0.5%) in the presence of 5 mM GABA. The incubation is brought to a final volume of 1.0 mL with buffer. […] Following a 90 min incubation at room temp, the assays are terminated by filtration through glass fiber filters (Schleicher and Schuell No. 32) using a cell harvester (Brandel) and rinsed three times with ice-cold buffer. Filter bound radioactivity is measured by liquid scintillation spectrometry. Non-linear curve fitting of the overall data for each drug averaged for each concentration is done using Prism (GraphPad).
Various compounds are or can be screened to determine their potential as modulators of [^35S]-TBPS binding in vitro. These assays are or can be performed in accordance with the above discussed procedures.

As for `CC[C@H](NC(=O)[C@H]1CC[C@H]2[C@@H]3CC[C@@H]4C[C@](C)(O)CC[C@@H]4[C@H]3CC[C@]12C)c1ccc(F)cc1` (single isomer, unassigned) [Compound 33], the IC50 fell in the range of 100 to 500 nM.
For the compound `CC[C@@H](NC(=O)[C@H]1CC[C@H]2[C@@H]3CC[C@@H]4C[C@](C)(O)CC[C@@H]4[C@H]3CC[C@]12C)c1ccc(F)cc1` (single isomer, unassigned) [Compound 34], the IC50 was 100 to 500 nM.
In the case of `C[C@@]1(O)CC[C@H]2[C@@H](CC[C@@H]3[C@@H]2CC[C@@]2(C)[C@H]3CCC2(O)c2ccccc2)C1` (stereo in doubt) [Compound 100] it was greater than 500 nM; in that of `C[C@@]1(O)CC[C@H]2[C@H](CC[C@@H]3[C@@H]2CC[C@]2(C)[C@@H](C(=O)NCc4ccccc4)CC[C@@H]32)C1` [Compound 1], 50 to 100 nM.
In the case of `CCN(CC)C(=O)[C@H]1CC[C@H]2[C@@H]3CC[C@@H]4C[C@](C)(O)CC[C@@H]4[C@H]3CC[C@]12C` [Compound 2] it was 100 to 500 nM; in that of `C[C@@]1(O)CC[C@H]2[C@H](CC[C@@H]3[C@@H]2CC[C@]2(C)[C@@H](C(=O)Nc4ccccc4)CC[C@@H]32)C1` [Compound 3], less than 10 nM; in that of `CN(Cc1ccccc1)C(=O)[C@H]1CC[C@H]2[C@@H]3CC[C@@H]4C[C@](C)(O)CC[C@@H]4[C@H]3CC[C@]12C` [Compound 4], 10 to 50 nM.
Take `C[C@@]1(O)CC[C@H]2[C@H](CC[C@@H]3[C@@H]2CC[C@]2(C)[C@@H](C(=O)N4CCCCC4)CC[C@@H]32)C1` [Compound 5]: the IC50 was in the range of 50 to 100 nM.
Then `C[C@@]1(O)CC[C@H]2[C@H](CC[C@@H]3[C@@H]2CC[C@]2(C)[C@@H](C(=O)N4CCCOCC4)CC[C@@H]32)C1` [Compound 6], with greater than 500 nM; and `CN(C(=O)[C@H]1CC[C@H]2[C@@H]3CC[C@@H]4C[C@](C)(O)CC[C@@H]4[C@H]3CC[C@]12C)c1ccccc1` [Compound 7], with greater than 500 nM; and `C[C@@]1(O)CC[C@H]2[C@H](CC[C@@H]3[C@@H]2CC[C@]2(C)[C@@H](C(=O)NC4CCCCC4)CC[C@@H]32)C1` [Compound 8], with 50 to 100 nM.
With `CN(C(=O)[C@H]1CC[C@H]2[C@@H]3CC[C@@H]4C[C@](C)(O)CC[C@@H]4[C@H]3CC[C@]12C)C1CCCCC1` [Compound 9], the IC50 lay in the range of 100 to 500 nM.
As for `CN(C(=O)[C@H]1CC[C@H]2[C@@H]3CC[C@@H]4C[C@](C)(O)CC[C@@H]4[C@H]3CC[C@]12C)C1CCOCC1` [Compound 10], the IC50 was 100 to 500 nM.
Regarding `C[C@@]1(O)CC[C@H]2[C@H](CC[C@@H]3[C@@H]2CC[C@]2(C)[C@@H](C(=O)NCc4ccncc4)CC[C@@H]32)C1` [Compound 11], the IC50 is greater than 500 nM.
In the case of `C[C@@]1(O)CC[C@H]2[C@H](CC[C@@H]3[C@@H]2CC[C@]2(C)[C@@H](C(=O)NCc4cccnc4)CC[C@@H]32)C1` [Compound 12] it was greater than 500 nM; in that of `CN(Cc1ccncc1)C(=O)[C@H]1CC[C@H]2[C@@H]3CC[C@@H]4C[C@](C)(O)CC[C@@H]4[C@H]3CC[C@]12C` [Compound 13], 100 to 500 nM; in that of `CN(CC1CCOCC1)C(=O)[C@H]1CC[C@H]2[C@@H]3CC[C@@H]4C[C@](C)(O)CC[C@@H]4[C@H]3CC[C@]12C` [Compound 14], greater than 500 nM.
In the case of `C[C@@]1(O)CC[C@H]2[C@H](CC[C@@H]3[C@@H]2CC[C@]2(C)[C@@H](C(=O)NCc4ccccn4)CC[C@@H]32)C1` [Compound 15] it was 100 to 500 nM; in that of `CN(Cc1cccnc1)C(=O)[C@H]1CC[C@H]2[C@@H]3CC[C@@H]4C[C@](C)(O)CC[C@@H]4[C@H]3CC[C@]12C` [Compound 16], 100 to 500 nM.
Then `C[C@@]1(O)CC[C@H]2[C@H](CC[C@@H]3[C@@H]2CC[C@]2(C)[C@@H](C(=O)NCC4CCCCC4)CC[C@@H]32)C1` [Compound 17], with 100 to 500 nM; and `CN(CCc1ccccc1)C(=O)[C@H]1CC[C@H]2[C@@H]3CC[C@@H]4C[C@](C)(O)CC[C@@H]4[C@H]3CC[C@]12C` [Compound 18], with 50 to 100 nM; and `C[C@@]1(O)CC[C@H]2[C@H](CC[C@@H]3[C@@H]2CC[C@]2(C)[C@@H](C(=O)NCCc4ccccc4)CC[C@@H]32)C1` [Compound 19], with 100 to 500 nM.
As to `C[C@@H](NC(=O)[C@H]1CC[C@H]2[C@@H]3CC[C@@H]4C[C@](C)(O)CC[C@@H]4[C@H]3CC[C@]12C)c1ccccc1` [Compound 20], the IC50 was in the range of 100 to 500 nM.
Then `C[C@@H](c1ccccc1)N(C)C(=O)[C@H]1CC[C@H]2[C@@H]3CC[C@@H]4C[C@](C)(O)CC[C@@H]4[C@H]3CC[C@]12C` [Compound 21], with 10 to 50 nM; and `CN(Cc1ccccn1)C(=O)[C@H]1CC[C@H]2[C@@H]3CC[C@@H]4C[C@](C)(O)CC[C@@H]4[C@H]3CC[C@]12C` [Compound 22], with greater than 500 nM.
In the case of `C[C@@]1(O)CC[C@H]2[C@H](CC[C@@H]3[C@@H]2CC[C@]2(C)[C@@H](C(=O)N4CCCCCC4)CC[C@@H]32)C1` [Compound 23] it was 100 to 500 nM; in that of `C[C@@]1(O)CC[C@H]2[C@H](CC[C@@H]3[C@@H]2CC[C@]2(C)[C@@H](C(=O)NCC4CCOCC4)CC[C@@H]32)C1` [Compound 24], greater than 500 nM.
Then `C[C@@H]1CCCCN1C(=O)[C@H]1CC[C@H]2[C@@H]3CC[C@@H]4C[C@](C)(O)CC[C@@H]4[C@H]3CC[C@]12C` [Compound 25], with 100 to 500 nM; and `CN(CC1CCCCC1)C(=O)[C@H]1CC[C@H]2[C@@H]3CC[C@@H]4C[C@](C)(O)CC[C@@H]4[C@H]3CC[C@]12C` [Compound 26], with 100 to 500 nM.
Regarding `C[C@H](NC(=O)[C@H]1CC[C@H]2[C@@H]3CC[C@@H]4C[C@](C)(O)CC[C@@H]4[C@H]3CC[C@]12C)c1ccccc1` [Compound 27], the IC50 is 100 to 500 nM.
Consider `C[C@H]1CCCCN1C(=O)[C@H]1CC[C@H]2[C@@H]3CC[C@@H]4C[C@](C)(O)CC[C@@H]4[C@H]3CC[C@]12C` [Compound 28], for which the IC50 fell in the range of 100 to 500 nM.
On to `C[C@@]1(O)CC[C@H]2[C@H](CC[C@@H]3[C@@H]2CC[C@]2(C)[C@@H](C(=O)NC4CCOCC4)CC[C@@H]32)C1` [Compound 29], for which the IC50 is greater than 500 nM.
In the case of `C[C@@]1(O)CC[C@H]2[C@H](CC[C@@H]3[C@@H]2CC[C@]2(C)[C@@H](C(=O)N4CC[C@@H](c5ccccc5)C4)CC[C@@H]32)C1` [Compound 30] it was 100 to 500 nM; in that of `C[C@@]1(O)CC[C@H]2[C@H](CC[C@@H]3[C@@H]2CC[C@]2(C)[C@@H](C(=O)N4CC[C@H](c5ccccc5)C4)CC[C@@H]32)C1` [Compound 31], 50 to 100 nM; in that of `C[C@H](c1ccccc1)N(C)C(=O)[C@H]1CC[C@H]2[C@@H]3CC[C@@H]4C[C@](C)(O)CC[C@@H]4[C@H]3CC[C@]12C` [Compound 32], 10 to 50 nM.
For the compound `C[C@@]1(O)CC[C@H]2[C@H](CC[C@@H]3[C@@H]2CC[C@]2(C)[C@@H](C(=O)N4CCCc5ccccc54)CC[C@@H]32)C1` [Compound 35], the IC50 lay in the range of 100 to 500 nM.
Then `C[C@@]1(O)CC[C@H]2[C@H](CC[C@@H]3[C@@H]2CC[C@]2(C)[C@@H](C(=O)Nc4ccc(F)cc4C#N)CC[C@@H]32)C1` [Compound 37], with 10 to 50 nM.
In the case of `C[C@@]1(O)CC[C@H]2[C@H](CC[C@@H]3[C@@H]2CC[C@]2(C)[C@@H](C(=O)CNc4ccccc4)CC[C@@H]32)C1` [Compound 38] it was less than 10 nM.
With `CN(CC(=O)[C@H]1CC[C@H]2[C@@H]3CC[C@@H]4C[C@](C)(O)CC[C@@H]4[C@H]3CC[C@]12C)c1ccccc1` [Compound 39], the IC50 was 50 to 100 nM.
As for `C[C@@]1(O)CC[C@H]2[C@H](CC[C@@H]3[C@@H]2CC[C@]2(C)[C@@H](C(=O)CNc4ccc(F)cc4)CC[C@@H]32)C1` [Compound 40], the IC50 is less than 10 nM.
In the case of `C[C@@]1(O)CC[C@H]2[C@H](CC[C@@H]3[C@@H]2CC[C@]2(C)[C@@H](C(=O)CNc4cccc(F)c4)CC[C@@H]32)C1` [Compound 41] it was less than 10 nM.
As for `CN(CC(=O)[C@H]1CC[C@H]2[C@@H]3CC[C@@H]4C[C@](C)(O)CC[C@@H]4[C@H]3CC[C@]12C)c1cccc(F)c1` [Compound 42], the IC50 lay within 10 to 50 nM.
